Experiments:
[1] = molecular target: Phosphatidylinositol 3-kinase C2 domain-containing subunit gamma (Homo sapiens) (UniProt O75747); conditions: Compound concentration 1000.0 nM
[2] = molecular target: MAP kinase-interacting serine/threonine-protein kinase 2 (Homo sapiens) (UniProt Q9HBH9); conditions: Compound concentration 1000.0 nM
[3] = molecular target: Protein kinase C eta type (Homo sapiens) (UniProt P24723); conditions: Compound concentration 1000.0 nM
[4] = molecular target: Ribosomal protein S6 kinase alpha-2 (Homo sapiens) (UniProt Q15349); conditions: Compound concentration 1000.0 nM
[5] = molecular target: Platelet-derived growth factor receptor alpha (Homo sapiens) (UniProt P16234); conditions: Compound concentration 1000.0 nM
[6] = test system: Mast/stem cell growth factor receptor Kit (Homo sapiens), P10721 [V559D,T670I]; conditions: Compound concentration 1000.0 nM
[7] = molecular target: cGMP-dependent protein kinase 1 (Homo sapiens) (UniProt Q13976); conditions: Compound concentration 1000.0 nM
[8] = molecular target: Mitogen-activated protein kinase kinase kinase 7 (Homo sapiens) (UniProt O43318); conditions: Compound concentration 1000.0 nM
[9] = molecular target: Protein-tyrosine kinase 2-beta (Homo sapiens) (UniProt Q14289); conditions: Compound concentration 1000.0 nM
[10] = molecular target: Serine/threonine-protein kinase Nek2 (Homo sapiens) (UniProt P51955); conditions: Compound concentration 1000.0 nM
[11] = molecular target: Serine/threonine-protein kinase SIK1 (Homo sapiens) (UniProt P57059); conditions: Compound concentration 1000.0 nM
[12] = molecular target: Receptor-type tyrosine-protein kinase FLT3 (Homo sapiens) (UniProt P36888); conditions: Compound concentration 1000.0 nM
[13] = molecular target: Mitogen-activated protein kinase kinase kinase kinase 5 (Homo sapiens) (UniProt Q9Y4K4); conditions: Compound concentration 1000.0 nM
[14] = molecular target: Phosphatidylinositol 5-phosphate 4-kinase type-2 gamma (Homo sapiens) (UniProt Q8TBX8); conditions: Compound concentration 1000.0 nM
[15] = molecular target: Calcium/calmodulin-dependent protein kinase type 1D (Homo sapiens) (UniProt Q8IU85); conditions: Compound concentration 1000.0 nM
[16] = molecular target: Dual specificity mitogen-activated protein kinase kinase 6 (Homo sapiens) (UniProt P52564); conditions: Compound concentration 1000.0 nM
[17] = molecular target: Dual specificity testis-specific protein kinase 1 (Homo sapiens) (UniProt Q15569); conditions: Compound concentration 1000.0 nM
[18] = molecular target: Serine/threonine-protein kinase SBK1 (Homo sapiens) (UniProt Q52WX2); conditions: Compound concentration 1000.0 nM
[19] = molecular target: BMP-2-inducible protein kinase (Homo sapiens) (UniProt Q9NSY1); conditions: Compound concentration 1000.0 nM
[20] = molecular target: Serine/threonine-protein kinase WNK1 (Homo sapiens) (UniProt Q9H4A3); conditions: Compound concentration 1000.0 nM
[21] = molecular target: Cyclin-dependent kinase 14 (Homo sapiens) (UniProt O94921); conditions: Compound concentration 1000.0 nM
[22] = molecular target: 5-hydroxytryptamine receptor 1A (Homo sapiens) (UniProt P08908); conditions: Compound concentration 10.0 uM
[23] = molecular target: Tyrosine-protein kinase Fgr (Homo sapiens) (UniProt P09769); conditions: Compound concentration 1000.0 nM
[24] = molecular target: Mitogen-activated protein kinase 14 (Homo sapiens) (UniProt Q16539); conditions: Compound concentration 1000.0 nM
[25] = molecular target: Serine/threonine-protein kinase Nek7 (Homo sapiens) (UniProt Q8TDX7); conditions: Compound concentration 1000.0 nM
[26] = molecular target: Tyrosine-protein kinase Tec (Homo sapiens) (UniProt P42680); conditions: Compound concentration 1000.0 nM
[27] = molecular target: Aurora kinase A (Homo sapiens) (UniProt O14965); conditions: Compound concentration 1000.0 nM
[28] = molecular target: Cyclin-dependent kinase 7 (Homo sapiens) (UniProt P50613); conditions: Compound concentration 1000.0 nM
[29] = test system: Epidermal growth factor receptor (Homo sapiens), P00533 [L861Q]; conditions: Compound concentration 1000.0 nM
[30] = molecular target: Serine/threonine-protein kinase BRSK2 (Homo sapiens) (UniProt Q8IWQ3); conditions: Compound concentration 1000.0 nM
[31] = molecular target: Mitogen-activated protein kinase 6 (Homo sapiens) (UniProt Q16659); conditions: Compound concentration 1000.0 nM
[32] = molecular target: LIM domain kinase 2 (Homo sapiens) (UniProt P53671); conditions: Compound concentration 1000.0 nM
[33] = molecular target: Serine/threonine-protein kinase 35 (Homo sapiens) (UniProt Q8TDR2); conditions: Compound concentration 1000.0 nM
[34] = molecular target: Ephrin type-B receptor 4 (Homo sapiens) (UniProt P54760); conditions: Compound concentration 1000.0 nM
[35] = molecular target: Mitogen-activated protein kinase kinase kinase 5 (Homo sapiens) (UniProt Q99683); conditions: Compound concentration 1000.0 nM
[36] = molecular target: D(4) dopamine receptor (Homo sapiens) (UniProt P21917); conditions: Compound concentration 10.0 uM
[37] = molecular target: Histamine H2 receptor (Homo sapiens) (UniProt P25021); conditions: Compound concentration 10.0 uM
[38] = molecular target: Alpha-2A adrenergic receptor (Homo sapiens) (UniProt P08913); conditions: Compound concentration 10.0 uM
[39] = molecular target: Mitogen-activated protein kinase kinase kinase 1 (Homo sapiens) (UniProt Q13233); conditions: Compound concentration 1000.0 nM
[40] = molecular target: STE20/SPS1-related proline-alanine-rich protein kinase (Homo sapiens) (UniProt Q9UEW8); conditions: Compound concentration 1000.0 nM
[41] = molecular target: Mitogen-activated protein kinase 4 (Homo sapiens) (UniProt P31152); conditions: Compound concentration 1000.0 nM
[42] = molecular target: Dual specificity tyrosine-phosphorylation-regulated kinase 1B (Homo sapiens) (UniProt Q9Y463); conditions: Compound concentration 1000.0 nM
[43] = molecular target: Serine/threonine-protein kinase Nek10 (Homo sapiens) (UniProt Q6ZWH5); conditions: Compound concentration 1000.0 nM
[44] = molecular target: 5-hydroxytryptamine receptor 2B (Homo sapiens) (UniProt P41595); conditions: Compound concentration 10.0 uM
[45] = test system: Tyrosine-protein kinase ABL1 (Homo sapiens), P00519 [T315I]; conditions: Compound concentration 1000.0 nM

Chain of Cyclin-dependent kinase 14 (Homo sapiens) (O94921 whole entry): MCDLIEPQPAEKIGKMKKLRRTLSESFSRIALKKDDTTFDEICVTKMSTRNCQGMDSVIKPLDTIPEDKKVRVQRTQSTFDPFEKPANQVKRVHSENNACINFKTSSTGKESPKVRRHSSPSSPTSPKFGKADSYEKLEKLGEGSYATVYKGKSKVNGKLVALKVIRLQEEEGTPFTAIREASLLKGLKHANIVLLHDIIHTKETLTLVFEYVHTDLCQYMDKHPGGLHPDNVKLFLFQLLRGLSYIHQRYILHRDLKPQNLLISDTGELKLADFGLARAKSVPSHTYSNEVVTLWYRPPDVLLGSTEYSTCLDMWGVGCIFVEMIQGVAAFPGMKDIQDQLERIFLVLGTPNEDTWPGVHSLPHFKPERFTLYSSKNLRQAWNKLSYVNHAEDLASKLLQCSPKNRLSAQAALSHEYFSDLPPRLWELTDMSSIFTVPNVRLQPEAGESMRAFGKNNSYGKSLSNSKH
Chain of Dual specificity mitogen-activated protein kinase kinase 6 (Homo sapiens) (P52564 whole entry): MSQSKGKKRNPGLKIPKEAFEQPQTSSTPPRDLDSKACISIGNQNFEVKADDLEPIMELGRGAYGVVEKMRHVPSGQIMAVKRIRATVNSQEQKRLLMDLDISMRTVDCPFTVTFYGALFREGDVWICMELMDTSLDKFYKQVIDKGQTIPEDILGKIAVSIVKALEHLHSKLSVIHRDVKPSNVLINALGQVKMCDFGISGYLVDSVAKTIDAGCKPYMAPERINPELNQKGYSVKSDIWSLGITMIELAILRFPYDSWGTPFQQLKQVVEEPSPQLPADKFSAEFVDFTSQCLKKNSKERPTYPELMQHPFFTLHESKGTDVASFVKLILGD
Chain of Protein-tyrosine kinase 2-beta (Homo sapiens) (Q14289 whole entry, looked up): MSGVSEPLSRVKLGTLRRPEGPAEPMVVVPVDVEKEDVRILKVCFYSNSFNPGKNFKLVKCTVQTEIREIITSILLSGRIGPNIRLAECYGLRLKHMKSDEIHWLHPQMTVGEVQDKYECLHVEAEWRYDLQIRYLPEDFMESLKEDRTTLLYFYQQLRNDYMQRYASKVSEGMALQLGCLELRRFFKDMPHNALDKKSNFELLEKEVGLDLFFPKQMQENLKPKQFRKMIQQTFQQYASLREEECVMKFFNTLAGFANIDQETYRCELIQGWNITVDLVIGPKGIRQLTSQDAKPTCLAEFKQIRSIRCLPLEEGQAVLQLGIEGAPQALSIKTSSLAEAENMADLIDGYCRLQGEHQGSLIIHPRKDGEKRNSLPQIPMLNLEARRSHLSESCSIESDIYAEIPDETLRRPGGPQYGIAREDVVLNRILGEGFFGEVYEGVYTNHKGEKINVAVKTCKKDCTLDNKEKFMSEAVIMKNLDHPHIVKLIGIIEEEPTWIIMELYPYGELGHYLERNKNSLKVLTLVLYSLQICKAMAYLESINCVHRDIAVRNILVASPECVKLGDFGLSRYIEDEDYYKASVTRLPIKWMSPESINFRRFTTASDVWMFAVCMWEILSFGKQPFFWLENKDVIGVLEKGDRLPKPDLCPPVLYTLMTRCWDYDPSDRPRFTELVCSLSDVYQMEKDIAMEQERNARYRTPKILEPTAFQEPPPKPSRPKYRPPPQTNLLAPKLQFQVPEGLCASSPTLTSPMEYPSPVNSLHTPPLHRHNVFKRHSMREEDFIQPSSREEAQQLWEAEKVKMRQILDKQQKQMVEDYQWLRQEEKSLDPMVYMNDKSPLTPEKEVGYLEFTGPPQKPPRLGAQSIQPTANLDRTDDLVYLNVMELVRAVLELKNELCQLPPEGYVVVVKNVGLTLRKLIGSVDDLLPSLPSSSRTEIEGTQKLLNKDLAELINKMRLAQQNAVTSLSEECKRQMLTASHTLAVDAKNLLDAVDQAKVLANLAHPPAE
Chain of Mitogen-activated protein kinase 6 (Homo sapiens) (Q16659 whole entry, the tested form may be a part): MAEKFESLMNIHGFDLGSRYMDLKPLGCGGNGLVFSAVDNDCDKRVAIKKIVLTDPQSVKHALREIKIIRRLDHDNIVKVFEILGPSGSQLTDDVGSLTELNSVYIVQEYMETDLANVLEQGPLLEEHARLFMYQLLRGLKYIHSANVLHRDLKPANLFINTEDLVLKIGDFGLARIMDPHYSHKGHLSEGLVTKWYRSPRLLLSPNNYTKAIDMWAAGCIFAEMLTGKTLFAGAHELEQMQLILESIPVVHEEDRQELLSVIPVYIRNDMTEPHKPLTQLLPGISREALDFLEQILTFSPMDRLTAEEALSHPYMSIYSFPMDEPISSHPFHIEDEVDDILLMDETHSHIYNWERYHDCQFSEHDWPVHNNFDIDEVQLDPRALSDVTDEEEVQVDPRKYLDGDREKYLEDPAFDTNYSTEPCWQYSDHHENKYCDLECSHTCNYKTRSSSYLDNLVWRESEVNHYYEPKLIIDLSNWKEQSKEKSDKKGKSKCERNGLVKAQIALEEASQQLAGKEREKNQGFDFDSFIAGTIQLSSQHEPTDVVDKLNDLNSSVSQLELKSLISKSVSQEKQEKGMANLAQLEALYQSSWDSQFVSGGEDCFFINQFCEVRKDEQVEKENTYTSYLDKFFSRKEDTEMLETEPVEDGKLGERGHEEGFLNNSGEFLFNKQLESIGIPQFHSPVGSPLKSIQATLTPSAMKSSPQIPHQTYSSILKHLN
Chain of Serine/threonine-protein kinase SIK1 (Homo sapiens) (P57059 whole entry): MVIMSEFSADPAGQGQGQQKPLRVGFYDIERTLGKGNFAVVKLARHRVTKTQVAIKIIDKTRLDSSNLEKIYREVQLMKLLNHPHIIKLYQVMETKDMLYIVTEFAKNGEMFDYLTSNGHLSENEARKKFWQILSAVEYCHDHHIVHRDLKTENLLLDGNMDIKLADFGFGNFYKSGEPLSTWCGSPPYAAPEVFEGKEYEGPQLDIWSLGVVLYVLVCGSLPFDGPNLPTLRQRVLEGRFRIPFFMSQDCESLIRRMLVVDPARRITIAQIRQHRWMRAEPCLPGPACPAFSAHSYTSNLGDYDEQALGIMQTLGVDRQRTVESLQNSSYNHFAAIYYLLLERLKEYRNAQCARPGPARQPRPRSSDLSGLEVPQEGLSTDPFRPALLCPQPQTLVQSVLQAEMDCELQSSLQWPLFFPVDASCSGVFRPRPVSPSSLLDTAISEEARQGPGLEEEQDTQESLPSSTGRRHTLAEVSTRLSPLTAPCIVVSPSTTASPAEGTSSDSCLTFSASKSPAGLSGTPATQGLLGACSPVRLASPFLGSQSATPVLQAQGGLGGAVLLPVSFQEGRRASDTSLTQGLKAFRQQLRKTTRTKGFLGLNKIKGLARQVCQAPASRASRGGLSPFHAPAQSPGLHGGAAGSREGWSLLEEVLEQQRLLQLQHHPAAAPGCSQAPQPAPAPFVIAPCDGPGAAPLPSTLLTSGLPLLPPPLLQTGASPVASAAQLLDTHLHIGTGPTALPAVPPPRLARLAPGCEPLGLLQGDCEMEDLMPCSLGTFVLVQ
Chain of Mitogen-activated protein kinase 4 (Homo sapiens) (P31152 whole entry): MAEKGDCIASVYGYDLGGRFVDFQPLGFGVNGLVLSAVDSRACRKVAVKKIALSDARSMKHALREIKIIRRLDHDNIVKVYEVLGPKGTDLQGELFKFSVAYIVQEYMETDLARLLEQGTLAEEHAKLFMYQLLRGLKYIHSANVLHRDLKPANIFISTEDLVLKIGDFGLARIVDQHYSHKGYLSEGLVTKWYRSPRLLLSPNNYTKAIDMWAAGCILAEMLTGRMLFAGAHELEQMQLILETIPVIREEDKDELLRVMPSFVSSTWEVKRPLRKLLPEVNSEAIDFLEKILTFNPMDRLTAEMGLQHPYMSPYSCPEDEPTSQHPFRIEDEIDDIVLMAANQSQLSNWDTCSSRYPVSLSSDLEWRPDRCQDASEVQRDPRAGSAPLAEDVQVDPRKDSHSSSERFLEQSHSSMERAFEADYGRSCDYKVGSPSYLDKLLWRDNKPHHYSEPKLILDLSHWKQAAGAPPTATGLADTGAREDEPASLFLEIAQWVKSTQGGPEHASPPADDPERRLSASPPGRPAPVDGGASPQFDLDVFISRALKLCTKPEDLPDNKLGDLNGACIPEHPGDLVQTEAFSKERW
Chain of Dual specificity tyrosine-phosphorylation-regulated kinase 1B (Homo sapiens) (Q9Y463 whole entry, looked up): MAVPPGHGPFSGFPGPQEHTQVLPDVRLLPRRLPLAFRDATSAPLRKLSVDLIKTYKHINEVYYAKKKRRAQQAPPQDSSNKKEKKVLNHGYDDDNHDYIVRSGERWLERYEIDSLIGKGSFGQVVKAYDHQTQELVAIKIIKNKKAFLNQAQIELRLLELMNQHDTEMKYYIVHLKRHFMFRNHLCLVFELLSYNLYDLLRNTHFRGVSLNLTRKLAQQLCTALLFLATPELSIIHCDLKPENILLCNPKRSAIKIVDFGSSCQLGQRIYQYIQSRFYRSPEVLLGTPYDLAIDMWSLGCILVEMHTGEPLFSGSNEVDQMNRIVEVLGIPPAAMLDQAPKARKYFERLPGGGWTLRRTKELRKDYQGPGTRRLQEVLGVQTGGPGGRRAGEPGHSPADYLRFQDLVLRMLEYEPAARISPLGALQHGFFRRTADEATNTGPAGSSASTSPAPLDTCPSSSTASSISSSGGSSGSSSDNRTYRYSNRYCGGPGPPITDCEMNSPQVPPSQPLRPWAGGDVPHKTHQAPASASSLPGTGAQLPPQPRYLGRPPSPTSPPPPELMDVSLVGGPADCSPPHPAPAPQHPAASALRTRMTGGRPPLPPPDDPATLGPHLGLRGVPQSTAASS
Chain of Phosphatidylinositol 5-phosphate 4-kinase type-2 gamma (Homo sapiens) (Q8TBX8 whole entry): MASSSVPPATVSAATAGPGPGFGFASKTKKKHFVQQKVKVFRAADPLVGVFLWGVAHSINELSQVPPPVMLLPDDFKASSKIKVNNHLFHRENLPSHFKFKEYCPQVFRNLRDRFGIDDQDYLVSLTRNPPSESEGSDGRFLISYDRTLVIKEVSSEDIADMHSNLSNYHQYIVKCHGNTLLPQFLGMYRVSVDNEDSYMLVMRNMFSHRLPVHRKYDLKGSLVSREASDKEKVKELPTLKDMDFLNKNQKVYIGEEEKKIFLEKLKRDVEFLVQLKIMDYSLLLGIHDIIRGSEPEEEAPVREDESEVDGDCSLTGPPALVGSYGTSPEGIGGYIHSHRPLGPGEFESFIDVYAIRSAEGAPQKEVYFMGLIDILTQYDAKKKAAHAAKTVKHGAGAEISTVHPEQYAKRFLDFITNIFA

Cc1nc(Cc2cccc(C(F)(F)F)c2)sc1-c1ccc(C(N)=O)nc1 [TP-024n]
active: residual activity [14] 0.3%
inactive: residual activity [1] 93% | residual activity [2] 100% | residual activity [3] 83% | residual activity [4] 95% | residual activity [5] 88% | residual activity [6] 91% | residual activity [7] 87% | residual activity [8] 93% | residual activity [9] 100% | residual activity [10] 100% | residual activity [11] 100% | residual activity [12] 87% | residual activity [13] 87% | residual activity [15] 94% | residual activity [16] 69% | residual activity [17] 88% | residual activity [18] 100% | residual activity [19] 100% | residual activity [20] 100% | residual activity [21] 100% | inhibition [22] -2.04% | residual activity [23] 100% | residual activity [24] 100% | residual activity [25] 98% | residual activity [26] 100% | residual activity [27] 100% | residual activity [28] 90% | residual activity [29] 100% | residual activity [30] 72% | residual activity [31] 100% | residual activity [32] 98% | residual activity [33] 100% | residual activity [34] 100% | residual activity [35] 100% | inhibition [36] -2.16% | inhibition [37] 6.05% | inhibition [38] 4.44% | residual activity [39] 100% | residual activity [40] 100% | residual activity [41] 100% | residual activity [42] 100% | residual activity [43] 100% | inhibition [44] 33.7% | residual activity [45] 100%

Cc1cc(-n2nc(Cc3cc(F)cc(C(F)(F)F)c3)nc2C)ccc1C(N)=O [TP-024]
inactive: residual activity [1] 100% | residual activity [2] 100% | residual activity [3] 97% | residual activity [4] 100% | residual activity [5] 100% | residual activity [6] 100% | residual activity [7] 100% | residual activity [8] 100% | residual activity [9] 100% | residual activity [10] 100% | residual activity [11] 100% | residual activity [12] 100% | residual activity [13] 100% | residual activity [14] 100% | residual activity [15] 96% | residual activity [16] 83% | residual activity [17] 100% | residual activity [18] 98% | residual activity [19] 100% | residual activity [20] 100% | residual activity [21] 100% | inhibition [22] -4.42% | residual activity [23] 94% | residual activity [24] 95% | residual activity [25] 97% | residual activity [26] 100% | residual activity [27] 99% | residual activity [28] 100% | residual activity [29] 100% | residual activity [30] 77% | residual activity [31] 100% | residual activity [32] 95% | residual activity [33] 100% | residual activity [34] 100% | residual activity [35] 100% | inhibition [36] -2.09% | inhibition [37] 6.28% | inhibition [38] 8.93% | residual activity [39] 100% | residual activity [40] 100% | residual activity [41] 100% | residual activity [42] 100% | residual activity [43] 100% | inhibition [44] -2.51% | residual activity [45] 98%
